From paper PMC11624893 (Journal of the American Chemical Society, 2024)
Positions of bridges follow the written chain, without caps; N, C: chain ends. Non-standard residues stand in square brackets, D forms with d. Residues, ends and D or L forms follow the SMILES beside them. *: point of attachment. X1 = CC[C@H](C)CCCCC(=O)*; Dab = NCC[C@H](N)C(=O)O

How the values were obtained:
[1] = tested on: S. aureus 29213; test: Minimum inhibitory concentration; format: cell-based; conditions: for Minimum Inhibitory Concentration (MIC): S. aureus 29213, Gram-positive, actively growing
[2] = tested on: E. coli 25922; test: Minimum inhibitory concentration; format: cell-based; conditions: for Minimum Inhibitory Concentration (MIC): E. coli 25922, Gram-negative
[3] = tested on: A. baumannii 19606; test: Minimum inhibitory concentration; format: cell-based; conditions: for Minimum Inhibitory Concentration (MIC): A. baumannii 19606, Gram-negative
[4] = tested on: P. aeruginosa PA14; test: Minimum inhibitory concentration; format: cell-based; conditions: for Minimum Inhibitory Concentration (MIC): P. aeruginosa PA14, Gram-negative
[5] = tested on: E. faecium 51559; test: microbe, parasite or virus in culture; conditions: Enterococcus faecium, VRE, read-out: Minimum Inhibitory Concentration (MIC)
[6] = tested on: K. pneumoniae 700603; test: microbe, parasite or virus in culture; conditions: Klebsiella pneumoniae, 700603, read-out: Minimum Inhibitory Concentration (MIC)
[7] = tested on: M. avium 700898; test: microbe, parasite or virus in culture; conditions: Mycobacterium avium, 700898, read-out: Minimum Inhibitory Concentration (MIC)
[8] = tested on: M. smegmatis 700084; test: Minimum inhibitory concentration; format: cell-based; conditions: M. smegmatis 700084, mycobacteria
[9] = tested on: M. abscessus 19977; test: Minimum inhibitory concentration; format: cell-based; conditions: M. abscessus 19977, mycobacteria
[10] = tested on: biofilm-associated S. aureus 29213; test: Minimum biofilm eradication concentration; format: cell-based
[11] = tested on: biofilm-associated E. coli 25922; test: Minimum biofilm eradication concentration; format: cell-based
[12] = tested on: biofilm-associated M. smegmatis 700084; test: Minimum biofilm eradication concentration; format: cell-based
[13] = tested on: E. faecium 51559; conditions: E. faecium 51559, vanA-type resistance reference strain (VRE)
[14] = tested on: K. pneumoniae 700603; conditions: K. pneumoniae 700603, Gram-negative
[15] = tested on: M. avium 700898; conditions: M. avium 700898, mycobacteria
[16] = tested on: panel containing Gram-positive, Gram-negative, and mycobacterial microorganisms; test: MIC assay, statements over the whole panel; format: cell-based; conditions: Gram-negative organisms (E. coli, A. baumannii, K. pneumoniae, P. aeruginosa)
[17] = tested on: S. aureus; test: Peptidoglycan precursor accumulation, LC-MS; format: cell-based; conditions: treatment, cell lysis
[18] = tested on: M. smegmatis; test: Peptidoglycan precursor accumulation, LC-MS; format: cell-based; conditions: treatment, cell lysis
[19] = tested on: S. aureus 29213; test: Membrane permeability, propidium iodide; format: cell-based; conditions: S. aureus 29213, exponential-phase cells in HEPES-Glucose buffer
[20] = tested on: E. coli 25922; test: Outer membrane permeability, 1-N-phenylnapthylamine; format: cell-based; conditions: E. coli 25922, 5e at 80 μM (10x MIC)
[21] = tested on: M. smegmatis 700084; test: Ethidium bromide; format: cell-based; conditions: M. smegmatis 700084, 8 μM (1x MIC)
[22] = biofilm-associated S. aureus 29213, as given in the text
[23] = pre-formed biofilm of E. coli 25922, Table 2
[24] = pre-formed biofilms of E. coli 25922, as given in the text

Compound | Minimum Inhibitory Concentration (MIC) [1] | Minimum Inhibitory Concentration (MIC) [2] | Minimum Inhibitory Concentration (MIC) [3] | Minimum Inhibitory Concentration (MIC) [4] | Minimum Inhibitory Concentration (MIC) [8] | Minimum Inhibitory Concentration (MIC) [9] | minimum biofilm eradication concentration (MBEC) [10, 22] | minimum biofilm eradication concentration (MBEC) [11, 23] | minimum biofilm eradication concentration (MBEC) [11, 24] | Minimum Inhibitory Concentration (MIC) [13] | Minimum Inhibitory Concentration (MIC) [14] | Minimum Inhibitory Concentration (MIC) [15] | further results
CN(C)C(=N)N=C(N)N [Metformin, metformin] | – | – | – | – | – | – | – | – | – | – | – | – | MIC ([1]; Staphylococcus aureus, 29213, read-out: Minimum Inhibitory Concentration (MIC)): > 512 µM; MIC ([2]; Escherichia coli, 25922, read-out: Minimum Inhibitory Concentration (MIC)): > 512 µM; MIC ([3]; Acinetobacter baumannii, 19606, read-out: Minimum Inhibitory Concentration (MIC)): > 512 µM; MIC ([4]; Pseudomonas aeruginosa, PA14, read-out: Minimum Inhibitory Concentration (MIC)): > 512 µM; MIC [5]: > 512 µM; MIC [6]: > 512 µM; MIC [7]: > 512 µM
CN[C@H](CC(C)C)C(=O)N[C@H]1C(=O)N[C@@H](CC(N)=O)C(=O)N[C@H]2C(=O)N[C@H]3C(=O)N[C@H](C(=O)N[C@H](C(=O)O)c4cc(O)cc(O)c4-c4cc3ccc4O)[C@H](O[C@H]3C[C@](C)(N)[C@@H](O)[C@H](C)O3)c3ccc(c(Cl)c3)Oc3cc2cc(c3O[C@@H]2O[C@H](CO)[C@@H](O)[C@H](O)[C@H]2O[C@H]2C[C@](C)(NCc3ccc(-c4ccc(Cl)cc4)cc3)[C@@H](O)[C@H](C)O2)Oc2ccc(cc2Cl)[C@H]1O [Oritavancin, oritavancin] | 1 µM | >512 µM | 512 µM | >512 µM | 32 µM | 128 µM | 2 to 4 µM | >128 µM | no activity | 2 µM | >512 µM | 128 µM | minimum biofilm eradication concentration (MBEC) ([10]; pre-formed biofilm of S. aureus 29213, Table 2): 2 to 4 µM; minimum biofilm eradication concentration (MBEC) ([12]; pre-formed biofilms of M. smegmatis 700084, as given in the text): > 256 µM
CC[C@H](C)CCCCC(=O)N[C@@H](CCN)C(=O)N[C@H](C(=O)N[C@@H](CCN)C(=O)N[C@H]1CCNC(=O)[C@H]([C@@H](C)O)NC(=O)[C@H](CCN)NC(=O)[C@H](CCN)NC(=O)[C@H](CC(C)C)NC(=O)[C@@H](Cc2ccccc2)NC(=O)[C@H](CCN)NC1=O)[C@@H](C)O [Polymyxin B, polymyxin B] (X1-[Dab]T[Dab][Dab][Dab][dF]L[Dab][Dab]T; lactam 4-C (inferred); N-terminus assumed) | – | – | – | – | – | – | – | 16 to 32 µM | 16 to 32 µM | – | – | – | –
CO[C@H]1/C=C/O[C@@]2(C)Oc3c(C)c(O)c4c(O)c(c(/C=N/N5CCN(C)CC5)c(O)c4c3C2=O)NC(=O)/C(C)=C\C=C\[C@H](C)[C@H](O)[C@@H](C)[C@@H](O)[C@@H](C)[C@H](OC(C)=O)[C@@H]1C [Rifampicin, rifampicin] | – | – | – | – | – | – | 16 to 32 µM | – | – | – | – | – | –
CN[C@H](CC(C)C)C(=O)N[C@H]1C(=O)N[C@@H](CC(N)=O)C(=O)N[C@H]2C(=O)N[C@H]3C(=O)N[C@H](C(=O)N[C@H](C(=O)O)c4cc(O)cc(O)c4-c4cc3ccc4O)[C@H](O)c3ccc(c(Cl)c3)Oc3cc2cc(c3O[C@@H]2O[C@H](CO)[C@@H](O)[C@H](O)[C@H]2O[C@H]2C[C@](C)(N)[C@H](O)[C@H](C)O2)Oc2ccc(cc2Cl)[C@H]1O [Vancomycin, vancomycin] | 1 µM | 128 to 256 µM | 64 to 128 µM | 256 to 512 µM | 8 µM | 32 to 64 µM | > 512 µM | – | 256 µM | 512 µM | 256 to 512 µM | 16 µM | typical MIC against Gram-negative organisms [16]: ≥ 128 µM; minimum biofilm eradication concentration (MBEC) ([12]; pre-formed biofilm of M. smegmatis 700084, Table 2): 64 µM; accumulation of peptidoglycan precursor (UDP-MurNAc pentapeptide) [17]: accumulation of the UDP-MurNAc pentapeptide; accumulation of peptidoglycan precursor (UDP-MurNGlyc pentapeptide) [18]: related UDP-MurNGlyc pentapeptide in M. smegmatis; PI fluorescence (membrane permeabilization) [19]: no increase in fluorescence; NPN fluorescence (outer membrane destabilization) [20]: no increase in fluorescence; EtBr fluorescence [21]: did not influence EtBr fluorescence
Gentamycin | – | – | – | – | – | – | – | 8 µM | – | – | – | – | –
